# Test results reported in paper PMC9403976, “Elucidating the path to Plasmodium prolyl-tRNA synthetase inhibitors that overcome halofuginone resistance” (Nature Communications, 2022).
# Several values for one entry are separate records, joined by “and”; a condition that tells them apart may be missing. Equal values may be shown once. Read-outs that look alike come from different tables or passages of the source.
# Tests used:
# HsProRS = HsProRS (Homo sapiens, UniProt P07814); experiment: TR-FRET ligand displacement assay with tracer MAT379 (CoraFluor-1-Halo and anti-His6 antibody formats); format: binding; set-up: made in house; host or cells: E. coli SoluBL-21; settings: for TR-FRET dose-response, normalized signal (SI Fig 11): individual replicates
# Chain of HsProRS (P07814 996-1512): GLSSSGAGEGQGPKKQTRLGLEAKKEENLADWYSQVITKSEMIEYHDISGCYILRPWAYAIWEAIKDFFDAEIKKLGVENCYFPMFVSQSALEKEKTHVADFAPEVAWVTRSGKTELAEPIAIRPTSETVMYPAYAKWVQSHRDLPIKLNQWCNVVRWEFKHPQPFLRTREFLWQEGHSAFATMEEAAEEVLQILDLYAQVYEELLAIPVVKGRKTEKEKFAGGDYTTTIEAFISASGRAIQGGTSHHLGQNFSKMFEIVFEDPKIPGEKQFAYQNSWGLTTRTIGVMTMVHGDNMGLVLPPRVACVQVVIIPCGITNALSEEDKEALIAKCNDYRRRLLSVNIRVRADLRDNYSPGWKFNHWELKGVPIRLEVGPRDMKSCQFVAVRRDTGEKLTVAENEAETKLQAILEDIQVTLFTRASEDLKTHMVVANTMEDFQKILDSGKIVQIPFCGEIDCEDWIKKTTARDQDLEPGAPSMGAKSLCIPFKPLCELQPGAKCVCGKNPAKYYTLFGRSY
# [1] = tested on: HFGR-I P. falciparum (elevated proline homeostasis and PfcProRS^L482H); experiment: P. falciparum ABS growth assay, SYBR Green, 72 h, HFGR-I parasites; format: cell-based, Plasmodium falciparum; settings: HFGR-I
# Outline: (§1)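 Dd2-derived erythrocytic-stage parasites at 1% parasitemia and 1% hematocrit in RPMI + 0.5% Albumax were exposed to compounds in triplicate dose-response. Controls were 10 μM dihydroartemisinin (kill) and no-compound wells (growth). Growth was read by SYBR Green 1 fluorescence after 72 h and used to derive EC50.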
# PfcProRS = target: T1, PfcProRS (Plasmodium falciparum, UniProt Q8I5R7); format: binding; settings: for dose-response signal (normalized), SI Fig 8: single replicates
# T1 construct: made in house; host or cells: E. coli SoluBL-21
# T1 sequence (Q8I5R7 249-746): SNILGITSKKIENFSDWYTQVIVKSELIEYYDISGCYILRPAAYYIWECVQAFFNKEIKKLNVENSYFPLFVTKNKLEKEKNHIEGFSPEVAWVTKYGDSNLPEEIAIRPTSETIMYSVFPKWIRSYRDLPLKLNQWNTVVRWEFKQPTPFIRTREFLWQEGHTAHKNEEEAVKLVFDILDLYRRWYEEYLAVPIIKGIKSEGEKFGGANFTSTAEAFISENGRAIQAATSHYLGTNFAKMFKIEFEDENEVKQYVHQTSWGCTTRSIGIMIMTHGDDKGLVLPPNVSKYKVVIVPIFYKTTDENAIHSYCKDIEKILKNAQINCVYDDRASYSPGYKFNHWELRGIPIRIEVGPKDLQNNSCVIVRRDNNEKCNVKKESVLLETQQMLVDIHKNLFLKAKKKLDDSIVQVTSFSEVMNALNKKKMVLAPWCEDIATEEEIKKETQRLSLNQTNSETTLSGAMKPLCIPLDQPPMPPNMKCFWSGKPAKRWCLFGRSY
# [2] = tested on: halofuginone-induced P. falciparum (elevated proline homeostasis); experiment: P. falciparum ABS growth assay, SYBR Green, 72 h, halofuginone-induced parasites; format: cell-based, Plasmodium falciparum; settings: Halofuginone-Induced (HFG-Induced)
# Outline: as §1
# P. falciparum Dd2-2D4 = experiment: P. falciparum asexual blood stage (ABS) growth assay, SYBR Green, 72 h, wild-type parasites; format: cell-based, Plasmodium falciparum; settings: for ABS growth dose-response, normalized signal (Replicates 1-3): Dd2-2D4
structure (smiles),measurement,setting,value
CC(C)(C)OC(=O)NC1CCN(C(=O)Nc2nccnc2C(=O)NC2Cc3ccccc3C2)CC1 [compound 7],Kd,"HsProRS; HsProRS (KD [nM]) + proline, 100 μM proline, 250 nM MAT379",34.8 nM
same,Kd,"HsProRS; HsProRS - best Kd, SI Fig 16a, values on -log scale",22.1 nM
same,"normalized TR-FRET ligand displacement signal, dose-response replicates (SI Fig 6)",HsProRS; Log[inhibitor] (M) -5.000,-1.10E-01 and -3.98E-02 and -5.51E-02
same,"TR-FRET dose-response, normalized signal (SI Fig 11)",HsProRS; Log[inhibitor] (M) -5.000,5.88E-02 and 4.63E-03 and 1.20E-02
same,"normalized TR-FRET ligand displacement signal, dose-response replicates (SI Fig 6)",HsProRS; Log[inhibitor] (M) -5.301,-3.29E-02 and -2.98E-02 and -2.55E-02
same,"TR-FRET dose-response, normalized signal (SI Fig 11)",HsProRS; Log[inhibitor] (M) -5.301,8.22E-04 and 1.04E-02 and 2.94E-02
same,"normalized TR-FRET ligand displacement signal, dose-response replicates (SI Fig 6)",HsProRS; Log[inhibitor] (M) -5.601,-4.70E-04 and 4.94E-02 and -1.17E-02
same,"TR-FRET dose-response, normalized signal (SI Fig 11)",HsProRS; Log[inhibitor] (M) -5.601,2.44E-02 and 7.65E-03 and 4.65E-02
same,"normalized TR-FRET ligand displacement signal, dose-response replicates (SI Fig 6)",HsProRS; Log[inhibitor] (M) -5.904,-2.26E-02 and 7.29E-03 and -6.02E-02
same,"TR-FRET dose-response, normalized signal (SI Fig 11)",HsProRS; Log[inhibitor] (M) -5.904,5.49E-02 and 5.79E-02 and 5.68E-02
same,"normalized TR-FRET ligand displacement signal, dose-response replicates (SI Fig 6)",HsProRS; Log[inhibitor] (M) -6.208,5.82E-02 and 7.95E-02 and 2.06E-02
same,"TR-FRET dose-response, normalized signal (SI Fig 11)",HsProRS; Log[inhibitor] (M) -6.208,4.71E-02 and 4.91E-02 and 7.38E-02
same,"normalized TR-FRET ligand displacement signal, dose-response replicates (SI Fig 6)",HsProRS; Log[inhibitor] (M) -6.509,1.24E-02 and 1.36E-01 and 1.19E-01
same,"TR-FRET dose-response, normalized signal (SI Fig 11)",HsProRS; Log[inhibitor] (M) -6.509,1.27E-01 and 1.07E-01 and 8.54E-02
same,"normalized TR-FRET ligand displacement signal, dose-response replicates (SI Fig 6)",HsProRS; Log[inhibitor] (M) -6.796,2.14E-01 and 2.70E-01 and 2.50E-01
same,"TR-FRET dose-response, normalized signal (SI Fig 11)",HsProRS; Log[inhibitor] (M) -6.796,1.74E-01 and 1.79E-01 and 1.50E-01
same,"normalized TR-FRET ligand displacement signal, dose-response replicates (SI Fig 6)",HsProRS; Log[inhibitor] (M) -7.108,3.41E-01 and 3.62E-01 and 3.83E-01
same,"TR-FRET dose-response, normalized signal (SI Fig 11)",HsProRS; Log[inhibitor] (M) -7.108,2.66E-01 and 2.89E-01 and 3.00E-01
same,"normalized TR-FRET ligand displacement signal, dose-response replicates (SI Fig 6)",HsProRS; Log[inhibitor] (M) -7.409,5.14E-01 and 5.24E-01 and 5.91E-01
same,"TR-FRET dose-response, normalized signal (SI Fig 11)",HsProRS; Log[inhibitor] (M) -7.409,4.26E-01 and 3.87E-01 and 4.16E-01
same,"normalized TR-FRET ligand displacement signal, dose-response replicates (SI Fig 6)",HsProRS; Log[inhibitor] (M) -7.710,7.15E-01 and 7.22E-01 and 6.26E-01
same,"TR-FRET dose-response, normalized signal (SI Fig 11)",HsProRS; Log[inhibitor] (M) -7.710,5.82E-01 and 5.49E-01 and 5.55E-01
same,"normalized TR-FRET ligand displacement signal, dose-response replicates (SI Fig 6)",HsProRS; Log[inhibitor] (M) -8.000,9.10E-01 and 9.20E-01 and 8.83E-01
same,"TR-FRET dose-response, normalized signal (SI Fig 11)",HsProRS; Log[inhibitor] (M) -8.000,7.19E-01 and 6.97E-01 and 7.02E-01
same,"normalized TR-FRET ligand displacement signal, dose-response replicates (SI Fig 6)",HsProRS; Log[inhibitor] (M) -8.301,9.29E-01 and 8.45E-01 and 8.62E-01
same,"TR-FRET dose-response, normalized signal (SI Fig 11)",HsProRS; Log[inhibitor] (M) -8.301,8.41E-01 and 8.30E-01 and 7.96E-01
same,"normalized TR-FRET ligand displacement signal, dose-response replicates (SI Fig 6)",HsProRS; Log[inhibitor] (M) -8.602,1.00E+00 and 9.03E-01 and 8.98E-01
same,"TR-FRET dose-response, normalized signal (SI Fig 11)",HsProRS; Log[inhibitor] (M) -8.602,8.68E-01 and 8.38E-01 and 8.61E-01
same,"normalized TR-FRET ligand displacement signal, dose-response replicates (SI Fig 6)",HsProRS; Log[inhibitor] (M) -9.000,9.68E-01 and 8.42E-01 and 9.66E-01
same,"TR-FRET dose-response, normalized signal (SI Fig 11)",HsProRS; Log[inhibitor] (M) -9.000,9.12E-01 and 9.38E-01 and 9.42E-01
same,"normalized TR-FRET ligand displacement signal, dose-response replicates (SI Fig 6)",HsProRS; Log[inhibitor] (M) -9.301,9.89E-01 and 9.63E-01 and 1.01E+00
same,"TR-FRET dose-response, normalized signal (SI Fig 11)",HsProRS; Log[inhibitor] (M) -9.301,9.41E-01 and 9.42E-01 and 9.34E-01
same,"ABS growth dose-response, normalized signal (Replicates 1-3)",[1]; Log[inhibitor] (M) -5.000,7 (2×) and 6
same,"ABS growth dose-response, normalized signal (Replicates 1-3)",[1]; Log[inhibitor] (M) -5.301,18 and 21 and 24
same,"ABS growth dose-response, normalized signal (Replicates 1-3)",[1]; Log[inhibitor] (M) -5.602,51 and 50 and 48
same,"ABS growth dose-response, normalized signal (Replicates 1-3)",[1]; Log[inhibitor] (M) -5.903,103 and 100 and 102
same,"ABS growth dose-response, normalized signal (Replicates 1-3)",[1]; Log[inhibitor] (M) -6.204,99 and 103 and 101
same,"ABS growth dose-response, normalized signal (Replicates 1-3)",[1]; Log[inhibitor] (M) -6.505,106 and 103 and 101
same,"ABS growth dose-response, normalized signal (Replicates 1-3)",[1]; Log[inhibitor] (M) -6.806,100 and 103 and 108
same,"ABS growth dose-response, normalized signal (Replicates 1-3)",[1]; Log[inhibitor] (M) -7.107,110 and 105 and 104
same,"ABS growth dose-response, normalized signal (Replicates 1-3)",[1]; Log[inhibitor] (M) -7.408,103 and 110 and 105
same,"ABS growth dose-response, normalized signal (Replicates 1-3)",[1]; Log[inhibitor] (M) -7.709,107 and 102 and 105
same,"ABS growth dose-response, normalized signal (Replicates 1-3)",[1]; Log[inhibitor] (M) -8.010,102 and 103 and 101
same,"ABS growth dose-response, normalized signal (Replicates 1-3)",[1]; Log[inhibitor] (M) -8.311,104 (2×) and 102
same,"dose-response signal (normalized), SI Fig 8",PfcProRS; Log[inhibitor] (M) -5.000,9.23E-03 and -2.50E-03 and -6.65E-02
same,"dose-response signal (normalized), SI Fig 8",PfcProRS; Log[inhibitor] (M) -5.301,-5.43E-02 and 1.65E-02 and -1.76E-02
same,"dose-response signal (normalized), SI Fig 8",PfcProRS; Log[inhibitor] (M) -5.601,6.03E-02 and 2.26E-02 and 5.28E-02
same,"dose-response signal (normalized), SI Fig 8",PfcProRS; Log[inhibitor] (M) -5.904,2.65E-02 and 5.41E-02 and 9.36E-02
same,"dose-response signal (normalized), SI Fig 8",PfcProRS; Log[inhibitor] (M) -6.208,2.38E-02 and 1.39E-01 and 9.30E-02
same,"dose-response signal (normalized), SI Fig 8",PfcProRS; Log[inhibitor] (M) -6.509,2.08E-01 and 1.27E-01 and 1.08E-01
same,"dose-response signal (normalized), SI Fig 8",PfcProRS; Log[inhibitor] (M) -6.796,2.54E-01 and 2.41E-01 and 3.20E-01
same,"dose-response signal (normalized), SI Fig 8",PfcProRS; Log[inhibitor] (M) -7.108,4.18E-01 and 3.78E-01 and 4.14E-01
same,"dose-response signal (normalized), SI Fig 8",PfcProRS; Log[inhibitor] (M) -7.409,5.88E-01 and 6.84E-01 and 5.75E-01
same,"dose-response signal (normalized), SI Fig 8",PfcProRS; Log[inhibitor] (M) -7.710,7.68E-01 and 7.32E-01 and 7.90E-01
same,"dose-response signal (normalized), SI Fig 8",PfcProRS; Log[inhibitor] (M) -8.000,9.75E-01 and 1.04E+00 and 8.35E-01
same,"dose-response signal (normalized), SI Fig 8",PfcProRS; Log[inhibitor] (M) -8.301,9.24E-01 and 9.28E-01 and 8.42E-01
same,"dose-response signal (normalized), SI Fig 8",PfcProRS; Log[inhibitor] (M) -8.602,1.04E+00 and 8.85E-01 and 9.51E-01
same,"dose-response signal (normalized), SI Fig 8",PfcProRS; Log[inhibitor] (M) -9.000,1.00E+00 and 1.08E+00 and 9.49E-01
same,"dose-response signal (normalized), SI Fig 8",PfcProRS; Log[inhibitor] (M) -9.301,9.78E-01 and 9.98E-01 and 9.79E-01
same,PfcProRS -- best Kd,"PfcProRS; SI Fig 16a, values on -log scale",7.883
same,Kd,PfcProRS; read-out: PfcProRS (KD [nM]) + proline,13.2 nM
same,"ABS growth dose-response, normalized signal (Replicates 1-3)",[2]; Log[inhibitor] (M) -5.000,8 and 7 and 3
same,"ABS growth dose-response, normalized signal (Replicates 1-3)",[2]; Log[inhibitor] (M) -5.301,22 and 9 and 15
same,"ABS growth dose-response, normalized signal (Replicates 1-3)",[2]; Log[inhibitor] (M) -5.602,34 and 37 and 32
same,"ABS growth dose-response, normalized signal (Replicates 1-3)",[2]; Log[inhibitor] (M) -5.903,93 and 89 and 84
same,"ABS growth dose-response, normalized signal (Replicates 1-3)",[2]; Log[inhibitor] (M) -6.204,92 and 98 and 96
same,"ABS growth dose-response, normalized signal (Replicates 1-3)",[2]; Log[inhibitor] (M) -6.505,98 and 96 and 105
same,"ABS growth dose-response, normalized signal (Replicates 1-3)",[2]; Log[inhibitor] (M) -6.806,103 (2×) and 107
same,"ABS growth dose-response, normalized signal (Replicates 1-3)",[2]; Log[inhibitor] (M) -7.107,109 (2×) and 104
same,"ABS growth dose-response, normalized signal (Replicates 1-3)",[2]; Log[inhibitor] (M) -7.408,106 and 107 and 102
same,"ABS growth dose-response, normalized signal (Replicates 1-3)",[2]; Log[inhibitor] (M) -7.709,107 and 106 and 101
same,"ABS growth dose-response, normalized signal (Replicates 1-3)",[2]; Log[inhibitor] (M) -8.010,100 and 99 and 106
same,"ABS growth dose-response, normalized signal (Replicates 1-3)",[2]; Log[inhibitor] (M) -8.311,109 and 100 and 99
same,"ABS growth dose-response, normalized signal (Replicates 1-3)",P. falciparum Dd2-2D4; Log[inhibitor] (M) -5.000,1
same,"ABS growth dose-response, normalized signal (Replicates 1-3)",P. falciparum Dd2-2D4; Log[inhibitor] (M) -5.301,1
same,"ABS growth dose-response, normalized signal (Replicates 1-3)",P. falciparum Dd2-2D4; Log[inhibitor] (M) -5.602,1
same,"ABS growth dose-response, normalized signal (Replicates 1-3)",P. falciparum Dd2-2D4; Log[inhibitor] (M) -5.903,1
same,"ABS growth dose-response, normalized signal (Replicates 1-3)",P. falciparum Dd2-2D4; Log[inhibitor] (M) -6.505,1
same,EC50,"P. falciparum Dd2-2D4; Plasmodium falciparum, DD2, SI Fig 16b, values on -log scale, read-out: ABS - Dd2-2D4 (converted)",90.6 nM
